Columns and labels:
GST-Flk1 = target: T1, GST-Flk1 (Mus musculus, UniProt P35918); assay: GST-FLK-1 bioassay (bio flkGST); type: biochemical
T1 construct: GST-Flk1cd purified from sf9 recombinant baculovirus transformation; host or cells: Sf9 (baculovirus)

PDGFR-β = target: T2, PDGFR-β (Homo sapiens, UniProt P09619); assay: PDGFR bioassay (bio PDGF); type: biochemical
T2 construct: host or cells: NIH 3T3

EGFR = target: T3, EGFR (Homo sapiens, UniProt P00533); assay: EGFR bioassay (bio EGF); type: biochemical
T3 construct: A431 cell lysate (SUGEN, Inc.); host or cells: A431
T3 sequence (P00533 25-1210): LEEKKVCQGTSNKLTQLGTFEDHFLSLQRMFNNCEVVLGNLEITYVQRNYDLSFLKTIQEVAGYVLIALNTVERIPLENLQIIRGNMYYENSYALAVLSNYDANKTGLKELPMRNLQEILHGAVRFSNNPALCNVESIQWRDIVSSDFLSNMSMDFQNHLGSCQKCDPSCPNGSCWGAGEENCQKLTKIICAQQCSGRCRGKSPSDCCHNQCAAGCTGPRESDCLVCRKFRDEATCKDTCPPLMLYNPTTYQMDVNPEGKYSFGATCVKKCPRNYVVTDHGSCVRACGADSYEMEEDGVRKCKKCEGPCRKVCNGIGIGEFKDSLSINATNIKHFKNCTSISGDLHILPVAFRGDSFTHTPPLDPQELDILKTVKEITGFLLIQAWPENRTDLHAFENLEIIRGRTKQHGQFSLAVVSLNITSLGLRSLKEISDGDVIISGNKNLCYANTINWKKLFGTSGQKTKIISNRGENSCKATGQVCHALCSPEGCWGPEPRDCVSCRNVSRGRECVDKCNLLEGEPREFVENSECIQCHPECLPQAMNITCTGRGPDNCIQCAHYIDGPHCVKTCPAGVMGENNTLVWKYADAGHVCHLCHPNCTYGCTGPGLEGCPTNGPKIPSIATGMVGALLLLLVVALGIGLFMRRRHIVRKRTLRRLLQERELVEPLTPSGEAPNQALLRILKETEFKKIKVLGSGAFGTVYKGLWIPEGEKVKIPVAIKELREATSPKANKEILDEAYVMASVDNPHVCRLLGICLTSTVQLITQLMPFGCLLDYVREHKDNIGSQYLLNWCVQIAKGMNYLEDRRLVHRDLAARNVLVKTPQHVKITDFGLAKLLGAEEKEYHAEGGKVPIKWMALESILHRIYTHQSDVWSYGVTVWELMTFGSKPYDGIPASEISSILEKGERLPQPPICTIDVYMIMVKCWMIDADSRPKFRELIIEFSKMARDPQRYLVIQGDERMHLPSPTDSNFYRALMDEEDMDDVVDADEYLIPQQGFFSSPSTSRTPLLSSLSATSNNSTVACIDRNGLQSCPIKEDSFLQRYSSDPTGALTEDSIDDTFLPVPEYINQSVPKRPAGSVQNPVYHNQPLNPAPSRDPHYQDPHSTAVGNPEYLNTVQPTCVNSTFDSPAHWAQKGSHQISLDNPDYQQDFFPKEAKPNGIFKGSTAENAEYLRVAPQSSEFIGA

HER-2 kinase = target: T4, HER-2 kinase (Homo sapiens, UniProt P04626); assay: Cellular HER-2 kinase assay; type: cell-based; conditions: read-out: Her2 Kinase IC50
T4 construct: Use EGFr/HER-2 chimera/3T3-C7 cell line for this assay; It is expressed in mouse NIH 3T3 clone C7 cells; P00533 (Epidermal growth factor receptor)
T4 sequence (P04626 720-987 limits assumed): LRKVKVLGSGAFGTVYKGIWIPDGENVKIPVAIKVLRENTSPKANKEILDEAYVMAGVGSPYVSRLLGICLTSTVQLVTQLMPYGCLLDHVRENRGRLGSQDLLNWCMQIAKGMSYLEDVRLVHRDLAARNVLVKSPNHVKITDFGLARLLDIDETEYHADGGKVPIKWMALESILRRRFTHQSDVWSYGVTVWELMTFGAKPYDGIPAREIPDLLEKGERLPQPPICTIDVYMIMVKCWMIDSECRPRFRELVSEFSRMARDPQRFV

T1 sequence (P35918 784-1345 limits assumed): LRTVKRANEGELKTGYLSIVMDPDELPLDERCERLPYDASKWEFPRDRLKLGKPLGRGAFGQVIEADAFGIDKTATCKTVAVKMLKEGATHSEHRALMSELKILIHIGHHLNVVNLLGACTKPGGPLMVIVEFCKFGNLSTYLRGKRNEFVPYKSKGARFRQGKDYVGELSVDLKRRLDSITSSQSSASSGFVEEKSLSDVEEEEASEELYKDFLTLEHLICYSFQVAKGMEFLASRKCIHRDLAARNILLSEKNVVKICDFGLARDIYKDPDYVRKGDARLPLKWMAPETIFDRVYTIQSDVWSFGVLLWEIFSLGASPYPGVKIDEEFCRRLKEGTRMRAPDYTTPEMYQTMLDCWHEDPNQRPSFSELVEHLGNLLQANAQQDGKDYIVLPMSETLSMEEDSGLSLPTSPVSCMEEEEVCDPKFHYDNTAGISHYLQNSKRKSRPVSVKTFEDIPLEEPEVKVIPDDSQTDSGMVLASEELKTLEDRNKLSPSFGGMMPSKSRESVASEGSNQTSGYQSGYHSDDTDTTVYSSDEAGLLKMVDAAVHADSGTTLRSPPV
T2 sequence (P09619 33-1106): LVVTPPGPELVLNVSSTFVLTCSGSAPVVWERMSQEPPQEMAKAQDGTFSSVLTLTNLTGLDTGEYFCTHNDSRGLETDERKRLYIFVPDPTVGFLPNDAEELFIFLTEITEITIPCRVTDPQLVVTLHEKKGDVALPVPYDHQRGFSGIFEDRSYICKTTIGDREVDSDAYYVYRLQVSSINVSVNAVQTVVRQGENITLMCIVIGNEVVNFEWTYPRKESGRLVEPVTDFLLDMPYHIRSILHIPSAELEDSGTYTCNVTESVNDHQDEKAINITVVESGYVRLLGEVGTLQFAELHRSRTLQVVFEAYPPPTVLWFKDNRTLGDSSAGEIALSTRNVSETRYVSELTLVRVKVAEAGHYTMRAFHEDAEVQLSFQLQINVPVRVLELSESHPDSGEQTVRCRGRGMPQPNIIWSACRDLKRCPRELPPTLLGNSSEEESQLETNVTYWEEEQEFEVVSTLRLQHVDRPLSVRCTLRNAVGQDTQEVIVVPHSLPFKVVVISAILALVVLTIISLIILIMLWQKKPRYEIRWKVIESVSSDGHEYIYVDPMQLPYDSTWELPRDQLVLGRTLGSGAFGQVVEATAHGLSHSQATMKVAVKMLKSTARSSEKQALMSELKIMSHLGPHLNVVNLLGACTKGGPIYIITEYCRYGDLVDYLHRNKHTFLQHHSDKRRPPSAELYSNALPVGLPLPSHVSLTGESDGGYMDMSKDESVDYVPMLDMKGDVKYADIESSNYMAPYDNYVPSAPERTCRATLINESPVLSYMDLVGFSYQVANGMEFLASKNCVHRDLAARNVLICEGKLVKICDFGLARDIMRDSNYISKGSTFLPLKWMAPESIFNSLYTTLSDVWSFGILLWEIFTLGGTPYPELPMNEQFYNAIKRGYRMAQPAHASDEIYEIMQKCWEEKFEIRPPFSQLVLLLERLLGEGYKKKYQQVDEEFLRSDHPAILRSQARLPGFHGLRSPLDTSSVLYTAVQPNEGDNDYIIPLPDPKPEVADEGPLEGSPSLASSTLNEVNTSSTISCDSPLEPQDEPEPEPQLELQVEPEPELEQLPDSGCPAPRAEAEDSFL

IC50 (GST-Flk1) [µM]	IC50 (PDGFR-β) [µM]	IC50 (EGFR) [µM]	IC50 (HER-2 kinase) [µM]	Structure (SMILES)
0.21	0.18	> 100	> 100	CCN(CC)CCNC(=O)c1c(C)[nH]c(/C=C2\C(=O)Nc3cc(C(=O)O)ccc32)c1C [Example 81, 3-[4-(2-diethylaminoethylcarbamoyl)-3,5-dimethyl-1H-pyrrol-2-ylmethylene]-2-oxo-2,3-dihydro-1H-indole-6-carboxylic acid]
9.4	> 100	18.7	4.1	CC(=O)c1c(/C=C2\C(=O)Nc3ccc(Br)cc32)[nH]c(C(=O)NCCCN2CCCC2)c1C [Example 30, 4-Acetyl-5-(5-bromo-2-oxo-1,2-dihydroindol-3-ylidenemethyl)-3-methyl-1H-pyrrole-2-carboxylic acid (3-pyrrolidin-1-ylpropyl)amide]
10.1	> 100	26.7	3.98	CCN(CC)CCCNC(=O)c1[nH]c(/C=C2\C(=O)Nc3ccc(Br)cc32)c(C(C)=O)c1C [Example 29, 4-Acetyl-5-(5-bromo-2-oxo-1,2-dihydroindol-3-ylidenemethyl)-3-methyl-1H-pyrrole-2-carboxylic acid (3-diethylaminopropyl)amide]
–	21.1	–	–	Cc1[nH]c(/C=C2\C(=O)Nc3ccc(-c4ccccc4)cc32)c(C)c1C(=O)NCCCn1ccnc1 [Example 58, 2,4-Dimethyl-5-(2-oxo-5-phenyl-1,2-dihydroindol-3-ylidenemethyl)-1H-pyrrole-3-carboxylic acid (3-imidazol-1-ylpropyl)amide]
–	> 100	26.5	3.91	COc1ccc2c(c1)/C(=C/c1[nH]c(C(=O)NCCCN3CCCC3)c(C)c1C(=O)c1ccccc1)C(=O)N2 [Example 27, 4-Benzoyl-5-(5-methoxy-2-oxo-1,2-dihydroindol-3-ylidenemethyl)-3-methyl-1H-pyrrole-2-carboxylic acid (3-pyrrolidin-1-ylpropyl)amide]
> 20	21.5	> 100	27.7	CCN(CC)CCCNC(=O)c1[nH]c(/C=C2\C(=O)Nc3ccccc32)cc1C [Example 12, 3-Methyl-5-(2-oxo-1,2-dihydroindol-3-ylidenemethyl)-1H-pyrrole-2-carboxylic acid (3-diethylaminopropyl)amide]
> 20	> 100	> 100	> 100	CC(=O)c1c(/C=C2\C(=O)Nc3ccc(Br)cc32)[nH]c(C(=O)NCCc2ccc(O)cc2)c1C [Example 36, 4-Acetyl-5-(5-bromo-2-oxo-1,2-dihydroindol-3-ylidenemethyl)-3-methyl-1H-pyrrole-2-carboxylic acid [2-(4-hydroxy-phenyl)-ethyl]amide]
13	42.4	> 100	66	CCN(CC)CCCNC(=O)c1[nH]c(/C=C2\C(=O)Nc3cc(-c4ccccc4)ccc32)cc1C [Example 14, 3-Methyl-5-(2-oxo-6-phenyl-1,2-dihydroindol-3-ylidenemethyl)-1H-pyrrole-2-carboxylic acid (3-diethylaminopropyl)amide]
–	98.1	–	23.3	CCN(CC)CCCNC(=O)c1[nH]c(/C=C2\C(=O)Nc3cc(OC)ccc32)cc1C [Example 16, 5-(6-Methoxy-2-oxo-1,2-dihydroindol-3-ylidenemethyl)-3-methyl-1H-pyrrole-2-carboxylic acid (3-diethylaminopropyl)amide]
1.49	> 100	27.4	> 100	Cc1[nH]c(/C=C2\C(=O)Nc3cc(-c4cccc(C(C)C)c4)ccc32)c(C)c1C(=O)NCCN1CCCC1 [Example 79, 5-[6-(3-Isopropyl-phenyl)-2-oxo-1,2-dihydroindol-3-ylidenemethyl]-2,4-dimethyl-1H-pyrrole-3-carboxylic acid (2-pyrrolidin-1-yl-ethyl)amide]
15.2	22.5	–	9.91	CCN(CC)CCNC(=O)c1c(C(C)C)[nH]c(/C=C2\C(=O)Nc3ccc(Br)cc32)c1C(C)C [Example 71, 5-(5-Bromo-2-oxo-1,2-dihydroindol-3-ylidenemethyl)-2,4-diisopropyl-1H-pyrrole-3-carboxylic acid (2-diethylaminoethyl)amide]
8	8.32	–	–	CCN(CC)CCNC(=O)c1c(C)[nH]c(/C=C2\C(=O)Nc3cc(-c4cc(Cl)cc(Cl)c4)ccc32)c1C [Example 62, 5-[6-(3,5-Dichloro-phenyl)-2-oxo-1,2-dihydroindol-3-ylidenemethyl]-2,4-dimethyl-1H-pyrrole-3-carboxylic acid (2-diethylaminoethyl)amide]
1.94	70.6	9.33	4.25	COc1ccc(-c2ccc3c(c2)NC(=O)/C3=C\c2[nH]c(C)c(C(=O)NCCN3CCCC3)c2C)c(OC)c1 [Example 78, 5-[6-(2,4-Dimethoxy-phenyl)-2-oxo-1,2-dihydroindol-3-ylidenemethyl]-2,4-dimethyl-1H-pyrrole-3-carboxylic acid (2-pyrrolidin-1-yl-ethyl)amide]
0.21	–	8.59	–	CCN(CC)CCNC(=O)c1c(C)[nH]c(/C=C2\C(=O)Nc3cc(-c4cccnc4)ccc32)c1C [Example 63, 2,4-Dimethyl-5-(2-oxo-6-pyridin-3-yl-1,2-dihydroindol-3-ylidenemethyl)-1H-pyrrole-3-carboxylic acid (2-diethylaminoethyl)amide]
16	66.9	34.7	10	COc1ccc2c(c1)NC(=O)/C2=C\c1[nH]c(C(=O)NCCCN2CCCC2)c(C)c1C(=O)c1ccccc1 [Example 26, 4-Benzoyl-5-(6-methoxy-2-oxo-1,2-dihydroindol-3-ylidenemethyl)-3-methyl-1H-pyrrole-2-carboxylic acid (3-pyrrolidin-1-ylpropyl)amide]
7.18	> 100	40.3	27.7	CCN(CC)CCCNC(=O)c1[nH]c(/C=C2\C(=O)Nc3ccc(Br)cc32)c(C(=O)c2ccccc2)c1C [Example 21, 4-Benzoyl-5-(5-bromo-2-oxo-1,2-dihydroindol-3-ylidenemethyl)-3-methyl-1H-pyrrole-2-carboxylic acid (3-diethylaminopropyl)amide]
45.7	5.94	> 100	> 100	CC(=O)c1c(/C=C2\C(=O)Nc3ccc(Br)cc32)[nH]c(C(=O)NCCCO)c1C [Example 32, 4-Acetyl-5-(5-bromo-2-oxo-1,2-dihydroindol-3-ylidenemethyl)-3-methyl-1H-pyrrole-2-carboxylic acid (3-hydroxy-propyl)amide]
4.5	7.9	6.52	6.27	CC(C)c1[nH]c(/C=C2\C(=O)Nc3ccc(Br)cc32)c(-c2ccccc2)c1C(=O)NCCCN1CCN(C)CC1 [Example 40, 5-(5-Bromo-2-oxo-1,2-dihydroindol-3-ylidenemethyl)-2-isopropyl-4-phenyl-1H-pyrrole-3-carboxylic acid [3-(4-methyl-piperazin-1-yl)-propyl]amide]
–	–	9.83	47.2	CC(=O)c1c(/C=C2\C(=O)Nc3ccc(Br)cc32)[nH]c(C(=O)NCCCN2CCOCC2)c1C [Example 31, 4-Acetyl-5-(5-bromo-2-oxo-1,2-dihydroindol-3-ylidenemethyl)-3-methyl-1H-pyrrole-2-carboxylic acid (3-morpholin-4-ylpropyl)amide]
–	–	–	98.6	CCN(CC)CCCNC(=O)c1[nH]c(/C=C2\C(=O)Nc3ccc(OC)cc32)cc1C [Example 15, 5-(5-Methoxy-2-oxo-1,2-dihydroindol-3-ylidenemethyl)-3-methyl-1H-pyrrole-2-carboxylic acid (3-diethylaminopropyl)amide]
> 20	> 100	36.6	4.05	Cc1c(C(=O)NCCCN2CCCC2)[nH]c(/C=C2\C(=O)Nc3ccccc32)c1C(=O)c1ccccc1 [Example 23, 4-Benzoyl-3-methyl-5-(2-oxo-1,2-dihydroindol-3-ylidenemethyl)-1H-pyrrole-2-carboxylic acid (3-pyrrolidin-1-ylpropyl)amide]
1.2	0.09	46.8	> 100	Cc1[nH]c(/C=C2\C(=O)Nc3ccc(Br)cc32)c(C)c1C(=O)NCc1ccncc1 [Example 74, 5-(5-Bromo-2-oxo-1,2-dihydroindol-3-ylidenemethyl)-2,4-dimethyl-1H-pyrrole-3-carboxylic acid (pyridin-4-ylmethyl)amide]
12.6	–	23.5	7.9	Cc1c(C(=O)NCCCN2CCCC2)[nH]c(/C=C2\C(=O)Nc3cc(-c4ccccc4)ccc32)c1C(=O)c1ccccc1 [Example 25, 4-Benzoyl-3-methyl-5-(2-oxo-6-phenyl-1,2-dihydroindol-3-ylidenemethyl)-1H-pyrrole-2-carboxylic acid (3-pyrrolidin-1-ylpropyl)amide]
–	–	–	87.7	Cc1c(C(=O)NCCCN2CCOCC2)[nH]c(/C=C2\C(=O)Nc3ccc(Br)cc32)c1C(=O)c1ccccc1 [Example 22, 4-Benzoyl-5-(5-bromo-2-oxo-1,2-dihydroindol-3-ylidenemethyl)-3-methyl-1H-pyrrole-2-carboxylic acid (3-morpholin-4-ylpropyl)amide]
–	–	16.8	5.31	Cc1c(C(=O)NCCCN2CCCC2)[nH]c(/C=C2\C(=O)Nc3ccc(Br)cc32)c1C(=O)c1ccccc1 [Example 24, 4-Benzoyl-5-(5-bromo-2-oxo-1,2-dihydroindol-3-ylidenemethyl)-3-methyl-1H-pyrrole-2-carboxylic acid (3-pyrrolidin-1-ylpropyl)amide]

— patent publication US6573293B2, “Pyrrole substituted 2-indolinone protein kinase inhibitors” (Sugen, Inc., priority 2000, dated 2003)
